# Experimental data from patent US12172983B2, “EGFR inhibitors” (Blueprint Medicines Corporation, priority 2019, dated 2024).
# Like-named read-outs stand apart in the source and are kept apart here.
# Assays:
# [1] = tested on: phosphorylation of EGFR (Tyr1068) in NCI-H1975 cell line that harbors the EGFR L858R T790M mutations; assay: NCI-H1975 pEGFR AlphaLISA assay; type: cell-based; settings: 4-5 hours incubation, read-out: Ext pEGFR H1975
# Protocol: Inhibitory effects of the compounds of the disclosure were evaluated in cellular assays that measure level of intracellular phosphorylation of EGFR in NCI-H1975 cell line that harbors the EGFR L858R T790M mutations (ATCC, CRL-5908) using AlphaLISA sureFire ultra p-EGFR (Tyr1068) assay kit (PerkinElmer, ALSU-PEGFR-A50K). The NCI-H1975 cells were seeded at 12.5K/well in 22 μL into 384 well opti plate (PerkinElmer, 6007299) and adhering overnight at 37 C/5% CO2. On the next day, the test compounds and DMSO control were added into H1975 cell plate followed by incubation at 37 C/5% CO2 for 4-5 hours. The cells were then spin down in the 384-well plate and lysed with 10 μL of 1×AlphaLISA lysis buffer followed by shaking at 600 rpm for 10 minutes at room temperature. After that, 5 μL of an acceptor bead mix was added to each well followed by incubation at room temperature for 1.5-2 h in dark. Then 5 μL of a donor bead mix was added to each well followed by overnight incubation at room temperature in dark. On the next day, the plate was read at a compatible plate reader to obtain pEGFR signal. Percent of pEGFR inhibition was plotted against log concentration of compounds to generate IC50 values.
# EGFR (L858R T790M C797S) = target: T1, EGFR (L858R T790M C797S) (Homo sapiens, UniProt P00533, C797S/L858R/T790M); assay: Biochemical EGFR inhibition assay (Caliper mobility shift), EGFR LRTMCS mutant; settings: inhibitory activity against EGFR LRTMCS mutant; apparent IC50; read-out: Ext Enz LRTMCS
# T1 construct: purchased SignalChem E10-122VG
# Protocol: Reactions proceeded until between 10% to 20% total peptides were phosphorylated at room temperature (25° C.) and were terminated with 35 mM 2,2′,2″,2′″-(ethane-1,2-diyldinitrilo)tetraacetic acid (EDTA). Product was detected using the Caliper mobility shift detection method where the phosphorylated peptide (product) and substrate were electrophoretically separated and measured. Percent activity was plotted against log concentration of compound and points to generate an apparent IC50.
# [2] = Homo sapiens, NCI-H1975, inhibition of phosphorylation of mutant EGFR in NCI-H1975 cells
# [3] = inhibition of phosphorylation of mutant EGFR in NCI-H1975 cells
# T1 sequence (P00533 25-1210 T790M/C797S/L858R): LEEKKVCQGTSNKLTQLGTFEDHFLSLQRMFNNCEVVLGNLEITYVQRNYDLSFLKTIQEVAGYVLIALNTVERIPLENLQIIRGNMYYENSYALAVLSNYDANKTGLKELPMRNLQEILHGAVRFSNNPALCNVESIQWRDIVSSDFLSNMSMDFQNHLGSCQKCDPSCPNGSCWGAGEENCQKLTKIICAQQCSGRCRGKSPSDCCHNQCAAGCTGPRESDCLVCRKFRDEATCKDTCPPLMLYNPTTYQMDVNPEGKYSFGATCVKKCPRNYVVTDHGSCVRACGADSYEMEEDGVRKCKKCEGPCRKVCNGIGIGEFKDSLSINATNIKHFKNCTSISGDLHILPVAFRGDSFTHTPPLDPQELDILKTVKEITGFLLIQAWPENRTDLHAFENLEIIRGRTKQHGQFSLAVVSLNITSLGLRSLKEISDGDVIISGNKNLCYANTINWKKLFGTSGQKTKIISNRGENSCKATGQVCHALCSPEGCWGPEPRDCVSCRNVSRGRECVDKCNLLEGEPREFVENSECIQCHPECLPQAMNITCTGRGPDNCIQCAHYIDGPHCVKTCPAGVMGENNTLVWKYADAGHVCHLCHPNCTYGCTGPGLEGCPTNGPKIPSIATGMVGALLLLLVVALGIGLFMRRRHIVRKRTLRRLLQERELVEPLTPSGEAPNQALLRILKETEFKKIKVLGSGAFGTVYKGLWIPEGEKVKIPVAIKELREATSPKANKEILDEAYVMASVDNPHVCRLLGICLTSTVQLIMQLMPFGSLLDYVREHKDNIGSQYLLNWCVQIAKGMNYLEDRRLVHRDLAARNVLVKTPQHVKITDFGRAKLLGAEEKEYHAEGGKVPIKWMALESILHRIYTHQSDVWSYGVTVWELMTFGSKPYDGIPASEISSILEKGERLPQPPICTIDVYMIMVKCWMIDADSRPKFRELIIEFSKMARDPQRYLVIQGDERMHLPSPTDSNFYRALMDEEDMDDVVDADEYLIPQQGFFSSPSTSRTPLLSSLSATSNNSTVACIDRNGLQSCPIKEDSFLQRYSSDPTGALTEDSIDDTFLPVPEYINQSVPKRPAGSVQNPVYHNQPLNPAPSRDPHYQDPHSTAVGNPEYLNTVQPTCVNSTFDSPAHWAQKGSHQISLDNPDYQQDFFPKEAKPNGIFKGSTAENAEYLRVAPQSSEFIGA
Structure (SMILES),"IC50 [1, 2] [µM]",IC50 (EGFR (L858R T790M C797S)) [µM],"IC50 [1, 3] [µM]"
"CO[C@H]1[C@@H](O)CN(c2nccc(Nc3cc4c(C(C)C)ncc(N5C[C@H](CS(C)(=O)=O)[C@H]5C)c4cn3)n2)CC1(F)F (single isomer, unassigned) [Compound 234, (3S,4S)-5,5-difluoro-1-[4-({8-[(2R,3S)-3-(methanesulfonylmethyl)-2-methylazetidin-1-yl]-5-(propan-2-yl)-2,6-naphthyridin-3-yl}amino)pyrimidin-2-yl]-4-methoxypiperidin-3-ol or (3R,4R)-5,5-difluoro-1-[4-({8-[(2R,3S)-3-(methanesulfonylmethyl)-2-methylazetidin-1-yl]-5-(propan-2-yl)-2,6-naphthyridin-3-yl}amino)pyrimidin-2-yl]-4-methoxypiperidin-3-ol]",0.0201 to 0.03,0.0201 to 0.03,
"CC(C)c1ccc(N2C[C@@H](CS(C)(=O)=O)[C@H]2C)c2cnc(Nc3ccnc(N4CC[C@](C)(O)[C@H](F)C4)n3)cc12 (single isomer, unassigned) [Compound 121]",≤ 0.01,0.0151 to 0.02,
"CO[C@H]1CCN(c2nccc(Nc3cc4c(C(C)C)ccc(N5C[C@H](CS(C)(=O)=O)[C@H]5C)c4cn3)n2)C[C@H]1C#N (single isomer, unassigned) [Compound 164, (3S,4S)-1-[4-({8-[(2R,3S)-3-(methanesulfonylmethyl)-2-methylazetidin-1-yl]-5-(propan-2-yl)isoquinolin-3-yl}amino)pyrimidin-2-yl]-4-methoxypiperidine-3-carbonitrile or (3R,4R)-1-[4-({8-[(2R,3S)-3-(methanesulfonylmethyl)-2-methylazetidin-1-yl]-5-(propan-2-yl)isoquinolin-3-yl}amino)pyrimidin-2-yl]-4-methoxypiperidine-3-carbonitrile]",,0.0151 to 0.02,≤ 0.01
"CC(C)c1ccc(N2CC(CS(=O)(=O)C(F)F)C2)c2cnc(Nc3ccnc(N4CC[C@@H](O)[C@@](C)(F)C4)n3)cc12 (single isomer, unassigned) [Compound 219]",≤ 0.01,≤ 0.015,
"COCCO[C@H]1CCN(c2nccc(Nc3cc4c(C(C)C)ccc(N5CC(CS(C)(=O)=O)C5)c4cn3)n2)C[C@H]1O (racemic) [Compound 226, (3R,4S)-1-[4-[[5-isopropyl-8-[3-(methylsulfonylmethyl)azetidin-1-yl]-3-isoquinolyl]amino]pyrimidin-2-yl]-4-(2-methoxyethoxy)piperidin-3-ol and (3S,4R)-1-[4-[[5-isopropyl-8-[3-(methylsulfonylmethyl)azetidin-1-yl]-3-isoquinolyl]amino]pyrimidin-2-yl]-4-(2-methoxyethoxy)piperidin-3-ol]",0.0301 to 0.05,0.0301 to 0.1,
"CC(C)c1nnc(N2CC(CS(C)(=O)=O)C2)c2cnc(Nc3ccnc(N4CC[C@]5(CCO5)C(F)(F)C4)n3)cc12 (single isomer, unassigned) [Compound 209, (S)-N-(2-(5,5-difluoro-1-oxa-7-azaspiro[3.5]nonan-7-yl)pyrimidin-4-yl)-1-isopropyl-4-(3-((methylsulfonyl)methyl)azetidin-1-yl)pyrido[3,4-d]pyridazin-7-amine or (R)-N-(2-(5,5-difluoro-1-oxa-7-azaspiro[3.5]nonan-7-yl)pyrimidin-4-yl)-1-isopropyl-4-(3-((methylsulfonyl)methyl)azetidin-1-yl)pyrido[3,4-d]pyridazin-7-amine]",0.0301 to 0.05,≤ 0.015,
"CCS(=O)(=O)C[C@H]1CN(c2ncc(C(C)C)c3cc(Nc4ccnc(N5CC[C@@H](OCCO)[C@@H](F)C5)n4)ncc23)[C@@H]1C [Compound 249, 2-{[(3S,4R)-1-[4-({8-[(2R,3S)-3-[(ethanesulfonyl)methyl]-2-methylazetidin-1-yl]-5-(propan-2-yl)-2,7-naphthyridin-3-yl}amino)pyrimidin-2-yl]-3-fluoropiperidin-4-yl]oxy}ethan-1-ol]",≤ 0.01,≤ 0.015,
"CC(C)c1cnc(N2CC(CS(=O)(=O)C(F)F)C2)c2cnc(Nc3ccnc(N4CC[C@@H](O)[C@@](C)(F)C4)n3)cc12 (single isomer, unassigned) [Compound 220]",≤ 0.01,≤ 0.015,
"CCS(=O)(=O)C[C@H]1CN(c2cnc(C(C)C)c3cc(Nc4ccnc(N5CC[C@@H](OCCO)[C@@H](F)C5)n4)ncc23)[C@@H]1C [Compound 298, 2-{[(3S,4R)-1-[4-({8-[(2R,3S)-3-[(ethanesulfonyl)methyl]-2-methylazetidin-1-yl]-5-(propan-2-yl)-2,6-naphthyridin-3-yl}amino)pyrimidin-2-yl]-3-fluoropiperidin-4-yl]oxy}ethan-1-ol]",≤ 0.01,≤ 0.015,
"[2H]C([2H])([2H])O[C@H]1[C@@H](O)CN(c2nccc(Nc3cc4c(C(C)C)ccc(N5C[C@H](CS(C)(=O)=O)[C@H]5C)c4cn3)n2)CC1(F)F (single isomer, unassigned) [Compound 313, (3S,4S)-5,5-difluoro-1-(4-((5-isopropyl-8-((2R,3S)-2-methyl-3-((methylsulfonyl)methyl)azetidin-1-yl)isoquinolin-3-yl)amino)pyrimidin-2-yl)-4-(^2H3)methoxypiperidin-3-ol or (3R,4R)-5,5-difluoro-1-(4-((5-isopropyl-8-((2R,3S)-2-methyl-3-((methylsulfonyl)methyl)azetidin-1-yl)isoquinolin-3-yl)amino)pyrimidin-2-yl)-4-(^2H3)methoxypiperidin-3-ol]",≤ 0.01,0.0201 to 0.03,

# The next lines start with the values.
"IC50 [1, 2] [µM]",IC50 (EGFR (L858R T790M C797S)) [µM],"IC50 [1, 3] [µM]",Structure (SMILES)
≤ 0.01,≤ 0.015,,"CC(C)c1cnc(N2C[C@H](CS(C)(=O)=O)[C@H]2C)c2cnc(Nc3ccnc(N4CC[C@H]5COC[C@H]54)n3)cc12 (single isomer, unassigned) [Compound 266, N-{2-[(3aR,6aS)-hexahydro-1H-furo[3,4-b]pyrrol-1-yl]pyrimidin-4-yl}-8-[(2R,3S)-3-(methanesulfonylmethyl)-2-methylazetidin-1-yl]-5-(propan-2-yl)-2,7-naphthyridin-3-amine or N-{2-[(3aS,6aR)-hexahydro-1H-furo[3,4-b]pyrrol-1-yl]pyrimidin-4-yl}-8-[(2R,3S)-3-(methanesulfonylmethyl)-2-methylazetidin-1-yl]-5-(propan-2-yl)-2,7-naphthyridin-3-amine]"
≤ 0.01,≤ 0.015,,"CCS(=O)(=O)C[C@H]1CN(c2ncc(C(C)C)c3cc(Nc4ccnc(N5CC[C@H](OC)[C@@H](O)C5)n4)ncc23)[C@@H]1C (single isomer, unassigned) [Compound 179]"
≤ 0.01,≤ 0.015,,"CC(C)c1ccc(N2C[C@H](CS(C)(=O)=O)[C@H]2C)c2cnc(Nc3ccnc(N4CCC(N)C(F)(F)C4)n3)cc12 (single isomer, unassigned) [Compound 152, N-(2-((R)-4-amino-3,3-difluoropiperidin-1-yl)pyrimidin-4-yl)-5-isopropyl-8-((2R,3S)-2-methyl-3-(methylsulfonylmethyl)azetidin-1-yl(isoquinolin-3-amine or N-(2-((S)-4-amino-3,3-difluoropiperidin-1-yl)pyrimidin-4-yl)-5-isopropyl-8-((2R,3S)-2-methyl-3-((methylsulfonyl)methyl)azetidin-1-yl)isoquinolin-3-amine]"
0.0101 to 0.02,≤ 0.015,,"CO[C@H]1CCN(c2nccc(Nc3cc4c(C(C)C)ncc(N5C[C@H](CS(C)(=O)=O)[C@H]5C)c4cn3)n2)C[C@@H]1O (single isomer, unassigned) [Compound 104, (3S,4S)-1-(4-(5-isopropyl-8-((2R,3S)-2-methyl-3-(methylsulfonylmethyl)azetidin-1-yl)-2,6-naphthyridin-3-ylamino)pyrimidin-2-yl)-4-methoxypiperidin-3-ol or (3R,4R)-1-(4-(5-isopropyl-8-((2R,3S)-2-methyl-3-(methylsulfonylmethyl)azetidin-1-yl)-2,6-naphthyridin-3-ylamino)pyrimidin-2-yl)-4-methoxypiperidin-3-ol]"
,≤ 0.015,0.0101 to 0.02,"CO[C@@H]1[C@H](O)CN(c2nccc(Nc3cc4c(C(C)C)cnc(N5C[C@H](CS(C)(=O)=O)[C@H]5C)c4cn3)n2)CC1(F)F (single isomer, unassigned) [Compound 236, (3S,4S)-5,5-difluoro-1-[4-({8-[(2R,3S)-3-(methanesulfonylmethyl)-2-methylazetidin-1-yl]-5-(propan-2-yl)-2,7-naphthyridin-3-yl}amino)pyrimidin-2-yl]-4-methoxypiperidin-3-ol or (3R,4R)-5,5-difluoro-1-[4-({8-[(2R,3S)-3-(methanesulfonylmethyl)-2-methylazetidin-1-yl]-5-(propan-2-yl)-2,7-naphthyridin-3-yl}amino)pyrimidin-2-yl]-4-methoxypiperidin-3-ol]"
